Positions of bridges follow the written chain, without caps; N, C: chain ends. Residues, ends and D or L forms follow the SMILES beside them.
Experiments:
S. aureus ATCC29213 [1] = assay: Cytoplasmic membrane integrity, SYTO 9/PI flow cytometry; type: cell-based; conditions: 2 MIC, 3 h, flow cytometry, 10,000 cells, PBS 0.4%
Procedure: (§1) E. coli ATCC25922 and S. aureus ATCC29213 (OD600 = 0.6) were washed and diluted into 1 × 10^8 CFU/mL in sterile saline. The cells were treated with Z-d14CFR in the final concentration of 2 MIC for 3 h. Following that, the same volume of a mixture contains SYTO 9 dye and PI (Thermo Fisher, Waltham, MA, USA) (v/v, 1:1) was added to bacteria and incubated at 37 °C in the dark for 15 min. The bacteria were washed with saline to remove the unbound dye and then observed with a Nikon A1 confocal laser scanning microscope.
(§2) In order to further determine the percentage of PI-positive cells, the data of 10,000 cells were collected and analyzed by BD LSRFortessa flow cytometer.

E. coli ATCC25922 [2] = assay: as above; type: cell-based; conditions: 2 MIC, 3 h, flow cytometry, 10,000 cells, PBS 0%
Procedure: as §1, §2

S. aureus ATCC29213 [3] = assay: Extracellular β-galactosidase assay; type: cell-based; conditions: 2 MIC, 4 h at 37 °C, ONPG, OD 420 nm, compared with PBS, p < 0.001
Procedure: (§3) E. coli ATCC25922 and S. aureus ATCC29213 were washed and resuspended with 10 mM PBS into OD 600 = 0.5. […] Then, 190 μL of the supernatants was incubated with 10 μL 2-nitrophenyl-β-d-galactopyranoside, ONPG (Macklin, N814742, Shanghai, China) at a final concentration of 3 mM at 37 °C for 30 min. The absorbance at 420 nm was measured to assess the level of β-galactosidase outside the cells. The bacteria treated with 10 mM PBS in absence of peptide as the negative control and treated with ultrasonication as the positive control.

E. coli ATCC25922 [4] = assay: Extracellular β-galactosidase assay; type: cell-based; conditions: 2 MIC, 4 h at 37 °C, ONPG, OD 420 nm, compared with PBS, p < 0.001
Procedure: as §3

[5] = test system: mammalian cells (MAC-T, Hela, Vero); assay: Cytotoxicity, CCK8; type: cell-based; conditions: at 1 mg/mL, 24 h in DMEM with 1% FBS, CCK8, OD 450 nm, three independent experiments
Procedure: The cytotoxicity of peptides to mammalian cells was carried out according to CCK8 instructions (Beyotime, Shanghai, China). 1 × 10^4 Hela, Vero and MAC-T cells were, respectively, added in 96-well plates and cultured at 37 °C with 5% CO2 for 24 h. Then, the cells were washed thrice with 10 mM PBS to remove medium and then incubated with 100 μL peptide in DMEM with 1 % (v/v) FBS (finally concentration ranging from 1 mg/mL to 0.001 mg/mL). After incubating at 37 °C with 5% CO2 for 24 h, 10 μL CCK8 was added to the cells and then continued to be incubated at 37 °C for 4 h. CCK8 interacted with PBS without cells as the blank control. The absorbance of the mixture was measured at 450 nm and cell viability was calculated as follows: Cell viability (%) = (OD 450 peptide − OD 450 Blank)/(OD 450 PBS − OD 450 Blank) × 100%.

S. aureus ATCC29213 [6] = assay: Time-killing assay; type: cell-based; conditions: 2 MIC, CFU counts at 0-24 h
Procedure: (§4) E. coli ATCC25922 and S. aureus ATCC29213 in the mid-logarithmic phase were diluted into 1 × 10^6 CFU/mL with 10 mM PBS, and incubated with 10 μL Z-d14CFR in a final concentration of 2 MIC. At 0, 4, 8, 12, 16, 20, and 24 h, the mixture was serial diluted and spread onto LB agar plates. After 16 h of cultivation, the CFU number of bacteria was counted to evaluate the ability of peptide to kill bacteria. The bacteria treated with 10 mM PBS as a negative control, and meanwhile incubated with 2 MIC gentamicin or polymyxin B as a positive control.

E. coli ATCC25922 [7] = assay: Time-killing assay; type: cell-based; conditions: 2 MIC, CFU counts at 0-24 h
Procedure: as §4

E. coli CAU201919 = assay: Murine model of mastitis induced by MDR E. coli; type: in vivo, mice; conditions: Z-d14CFR 25 μg or gentamicin 10 μg via milk duct at 3 h and 15 h, 27 h post-infection
Text: In this study, the therapeutic effects of Z-d14CFR on MDR bacterial infection in vivo was verified by a murine mastitis model. E. coli CAU201919 was used to establish the mastitis model because it is highly pathogenic compared with other bacteria and is resistant to various antibiotics, such as ampicillin, amoxicillin and cefazolin. In brief, 45 Crl:CD1 female mice at 17–18 days of gestation were purchased from Beijing Vital River Laboratory Animal Technology Co., Ltd. (Beijing, China) and kept in the Laboratory Animal Center of China Agricultural University (Beijing, China). At 72 h post-partum, the mice were randomly divided into 5 groups (n = 9 per group) and the offspring were removed 3 h before of administration. The mice were anesthetized by Zoletil 50 (55 mg/kg body weight, WK001, Virbac, France) and held under the stereoscope in a supine position. Mice in the saline group and Z-d14CFR group were intraductal inoculated with 50 μL normal saline or 50 μL Z-d14CFR (25 μg each teat) alone to the milk duct. Mice in other groups were inoculated with 25 μL (1 × 10^5 CFU) E. coli CAU201919 suspension to the milk duct, and after 3 h of E. coli challenged, mice were treated with 25 μL saline, Z-d14CFR (25 μg) or gentamicin (10 μg), respectively, via milk duct injection. Then the mice were given the same treatment after 15 h of E. coli challenged. After 27 h of E. coli challenged, all mice were euthanized. The mammary gland tissues were collected to carry out bacterial count, histopathological examination and inflammatory factors examination.

[8] = test system: Proteus vulgaris CVCC1971; assay: MIC/MBC, microdilution broth method; type: cell-based; conditions: Proteus vulgaris CVCC1971; kills 99.9% bacteria; NA = no activity at 1 mg/mL
Procedure: (§5) The MIC of peptides against bacteria was carried out by the microdilution broth method. The bacterial culture (OD 600 = 0.6) was diluted in 10 mM PBS to 1 × 10^6 CFU/mL. The bacterial suspension (100 μL) was added to 96-well plates, and the same volume of peptides, ampicillin or gentamicin (concentrations ranging from 0.001 to 2 mg/mL) were then added to the same 96-well plates, respectively.

[9] = test system: Streptococcus suis CVCC3307; assay: MIC/MBC, microdilution broth method; type: cell-based; conditions: Streptococcus suis CVCC3307; kills 99.9% bacteria; NA = no activity at 1 mg/mL
Procedure: as §5

MRSA ATCC33591 = assay: MIC/MBC, microdilution broth method; type: cell-based, S. aureus; conditions: MRSA ATCC33591; kills 99.9% bacteria; NA = no activity at 1 mg/mL
Procedure: as §5

[10] = Retention time of peptide in HPLC (hydrophobicity); type: physicochemical; conditions: used as measure of hydrophobicity (order Z-d14CR > Z-d14CF > Z-d13 > Z-d14CFR > Z-d14C); column and gradient not given
[11] = test system: E. coli ATCC25922 and S. aureus ATCC29213; assay: Cytoplasmic membrane depolarization, DiSC3(5); type: cell-based; conditions: 2 MIC to 1/4 MIC; fluorescence 622/670 nm, 30 min
Procedure: The ability of Z-d14CFR to disrupt inner cytoplasmic membrane potential of E. coli ATCC25922 and S. aureus ATCC29213 was monitored using 3,3-dipropylthiadicarbocyanine iodide DiSC3(5) (Macklin, D864435, Shanghai, China) as previous mentioned. The bacteria were washed and resuspended with 5 mM HEPES, pH 7.4, containing 5 mM glucose and 100 mM KCl buffer into 1 × 10^6 CFU/mL. DiSC3(5) was subsequently added and incubated at 37 °C in the dark for 15 min until the fluorescence had stabilized. Z-d14CFR in a final concentration of 2 MIC, 1 MIC, 1/2 MIC and 1/4 MIC was added to the mixture. The fluorescence intensity was continuously monitored for 30 min by an excitation wavelength of 622 nm and an emission wavelength of 670 nm.

CC(C)[C@@H]1NC(=O)[C@@H]2CSSC[C@H](NC(=O)[C@H](CCCNC(=N)N)NC(=O)[C@@H](NC(=O)CNC(=O)[C@@H](N)CCCNC(=N)N)CSSC[C@@H](C(=O)N[C@@H](CCCNC(=N)N)C(N)=O)NC1=O)C(=O)N[C@@H](CC(N)=O)C(=O)N[C@@H](CO)C(=O)N[C@@H](CCCCN)C(=O)N[C@@H](CO)C(=O)N[C@@H](Cc1ccccc1)C(=O)N2 [Z-d14CFR] (H-RGCRCNSKSFCVCR-NH2; disulfide 3-13, 5-11; N-terminus assumed)
PI-positive bacteria (S. aureus ATCC29213 [1]): 3.4% | PI-positive bacteria (E. coli ATCC25922 [2]): 12.5% | extracellular release of β-galactosidase (S. aureus ATCC29213 [3]): significantly induced the release of β-galactosidase | extracellular release of β-galactosidase (E. coli ATCC25922 [4]): significantly induced the release of β-galactosidase | cytotoxicity [5]: < 10% | time to kill bacteria in the logarithmic phase (S. aureus ATCC29213 [6]; 1 × 10^6 CFU/mL): ≤ 4 h | time to kill bacteria in the plateau (S. aureus ATCC29213 [6]): ≤ 16 h | time to kill bacteria in the logarithmic phase (E. coli ATCC25922 [7]; 1 × 10^6 CFU/mL): ≤ 4 h | time to kill bacteria in the plateau (E. coli ATCC25922 [7]): ≤ 16 h | bacterial burden in the mammary gland (E. coli CAU201919; Crl:CD1 mice, 1 × 10^5 CFU E. coli CAU201919 intraductal, infected only about 3.71 × 10^9, p < 0.001): 3.57 × 10^8 CFU/g tissue | histopathologic damage of the mammary gland (acinar wall thickening, neutrophils infiltration) (E. coli CAU201919): obviously ameliorated | increase in IL-1β mRNA expression in the mammary gland (E. coli CAU201919; p < 0.001): attenuated | increase in TNF-α mRNA expression in the mammary gland (E. coli CAU201919; p < 0.001): attenuated | MBC [8]: NA (NA) (No antimicrobial activity at 1 mg/mL) | MBC [9]: NA (NA) (No antimicrobial activity at 1 mg/mL) | MBC (MRSA ATCC33591): NA (NA) (No antimicrobial activity at 1 mg/mL) | RT, retention time of peptide in HPLC [10]: 7.820 min | DiSC3(5) release (cytoplasmic membrane depolarization) [11]: remarkable releasing of DiSC3(5)
